Results on twelve molecules are retold here after publication PMC2685009, “Identification and Characterization of Inhibitors of Human Apurinic/apyrimidinic Endonuclease APE1” (PLoS ONE, 2009).

The target of assay [1] is T1, APE1 (Homo sapiens, UniProt P27695).
T1 construct: made in house
The assay is described as follows: qHTS fluorogenic AP site incision assay (TAMRA/BHQ-2 red substrate, 1536-well). Format: biochemical. Here is the method: Recombinant human APE1 and E. coli EndoIV were purified as previously described. Deoxyoligonucleotides containing a tetrahydrofuran (THF) AP site analog, carboxytetramethyl rhodamine (TAMRA), or Black Hole Quencher-2 (BHQ-2), as appropriate (see Figure 1), were purchased from Biosearch Technologies, Inc., (Novato, CA). To create double-stranded DNA substrates, equal volumes of 200 µM solutions of the respective strands in reaction buffer were mixed and incubated at 95°C for 5 min. The annealing mixture was allowed to cool gradually to room temperature. Annealing and assay experiments were performed in the following buffer: 50 mM Tris pH 7.5, 25 mM NaCl, 2 mM MgCl2, 1 mM DTT, 0.01% Tween-20.
Initial optimizations were carried out in 384-well format at a 40 µL total reaction volume. Briefly, 30 µL of APE1 were pipetted into the plate and incubated at room temperature for 10 min; subsequently, 10 µL of substrate were added to start the reaction. The final assay concentrations of the enzyme and substrate were 0.75 nM and 50 nM, respectively. Kinetic fluorescence data were collected on a ViewLux high-throughput CCD imager (Perkin Elmer, Waltham, MA) equipped with standard FITC (excitation filter 480 nm and emission filter 530 nm) or BODIPY (excitation filter 525 nm and emission filter 598 nm) optics.
Three µl of reagents (buffer in columns 3 and 4 as negative control and APE1 in columns 1, 2, 5–48) were dispensed into a 1536-well plate. Compounds (DMSO solutions) and control (DMSO only) (23 nL) were transferred via Kalypsys pintool equipped with 1536-pin array. The plate was incubated for 15 min at room temperature, and then 1 µL of substrate (50 nM final concentration) was added to start the reaction. Library plates were screened from the lowest to highest concentration.
Screening data were corrected and normalized, and concentration–effect relationships were derived by using in-house developed, publicly available algorithms (http://www.ncgc.nih.gov/pub/openhts/curvefit/). Percent activity was computed after normalization against the uninhibited, or neutral, control (64 wells, entire columns 1 and 2) and the no-enzyme, or 100% inhibited, control (64 wells, entire columns 3 and 4), respectively. A four parameter Hill equation was fitted to the concentration-response data by minimizing the residual error between the modeled and observed responses.
(Quantitative high-throughput screening tests each substance at several concentrations.)

For assay [2], the system named is AP site cleavage activity of HEK 293T whole cell extract. Kind of assay: Whole cell extract AP endonuclease activity assay (HEK 293T). Conditions: inhibitor at 100 µM. Format: biochemical, human. The procedure: (§1) The radiotracer assay was performed essentially as described. In brief, prioritized candidate inhibitor compounds from the qHTS assay were incubated at various concentrations (100 µM data shown) with APE1 (100 pg) at room temperature for 15 min in 25 mM Tris pH 7.5, 25 mM NaCl, 1 mM MgCl2, 1 mM DTT and 0.01% Tween-20. At that time, 0.5 pmol ^32P-radiolabeled THF-containing 34 mer double-stranded DNA substrate was added. Incision reactions were then carried out immediately at 37°C for 10 min in a final volume of 10 µL. After the addition of an equal volume of stop buffer (0.05% bromophenol blue and xylene cynol, 20 mM EDTA, 95% formamide), the radiolabeled substrate and product were separated on a standard polyacrylamide denaturing gel and quantified by phosphorimager analysis.
(§2) HEK 293T or HeLa cells – maintained in DMEM with 10% fetal bovine serum and 1% Penicillin-Streptomycin – were harvested, washed with 1× PBS, re-suspended in cold 222 mM KCl, incubated on ice for 30 min, and clarified by centrifugation at 12,000×g for 15 min at 4°C [23]. The supernatant (whole cell extract) was retained, the protein concentration determined using the Bio-Rad Bradford reagent, and aliquots were stored at −80°C. AP endonuclease activity assays were performed with or without candidate inhibitor compounds as described above, except 60 ng HEK 293T or 80 ng of HeLa whole cell extract was used.

For assay [3], the target named is unlabeled double-stranded DNA substrate. Kind of assay: ThO dye-displacement assay (DNA binding). Conditions: for IC50: 50 nM DNA, 250 nM ThO; for ThO displacement (in words): LOPAC dose-response profiling.
The target in another assay is T2, E. coli EndoIV (Escherichia coli, UniProt P0A6C1).
T2 construct: made in house
Kind of assay: E. coli Endonuclease IV (EndoIV) profiling assay. Format: biochemical. Here is the method: EndoIV enzyme and substrate (same as that used with APE1) optimization tests were initially performed at a 40 µL final volume in a 384-well format. Reaction concentrations of 2 nM EndoIV and 50 nM DNA substrate were selected for subsequent experiments. For running the assay in 1536-well format, the same protocol as described for APE1 above was followed.

Assay [4] concerns AP site cleavage activity of HeLa whole cell extract. The assay is described as follows: Whole cell extract AP endonuclease activity assay (HeLa). Format: biochemical, human. Conditions: inhibitor at 100 µM. Here is the method:
as §1, §2

Assay [5] has as its target T1, APE1. The assay is described as follows: Radiotracer (32P, gel-based) incision assay. In kind it is biochemical. Conditions: for Gel: inhibition detected or not in radiotracer incision assay: APE1, 32P-labeled THF substrate.
For assay [6], the system named is HeLa cells. The assay is described as follows: AP site measurement in chromosomal DNA. Format: cell-based, human. Here is the method:
HeLa cells were treated as above, except only at 5 µM inhibitor where indicated. Following exposure, chromosomal DNA was isolated and steady-state AP site levels were measured using the DNA Damage Quantification Kit from Dojindo Molecular Technologies, Inc. (Gaithersburg, MD) as previously described.

The test system of assay [7] is HeLa cells. Kind of assay: Cell-based colony survival assay with MMS. The arrangement: species or system human. Conditions: HeLa colony formation, 0.25 mM MMS, 1 or 5 µM inhibitor. The procedure:
To measure colony survival, HeLa cells were plated in 6-well plates 12–20 hr prior to treatment. Cells were treated as follows: (i) exposed only to control medium, (ii) exposed to 0.25 mM MMS alone for 1 hr, (iii) exposed to 1 or 5 µM of the indicated inhibitor compound alone for 4 hr, or (iii) exposed to inhibitor compound alone for 3 hr and then with MMS for an additional 1 hr at 37°C. Following treatment, cells were washed once with 1× PBS and incubated in regular maintenance media (DMEM, 10% FBS) at 37°C for 10–15 days. Colonies formed were fixed in methanol, stained in methylene blue (Sigma), and counted to determine percent survival relative to the untreated controls.

The mark [8] stands for this setting: 50 nM substrate, 0.75 nM APE1, read-out: qHTS IC50 (primary screen, APE1).
Where [9] appears, read: 2 nM EndoIV, 50 nM substrate, read-out: Endo IV IC50 (E. coli EndoIV profiling).
Where [10] appears, read: range of inhibitor concentrations, data not shown, read-out: approximate IC50 in radiotracer assay.

Like-named read-outs stand apart in the source and are kept apart here. Some results are limits rather than exact numbers.

T1 sequence (P27695 whole entry): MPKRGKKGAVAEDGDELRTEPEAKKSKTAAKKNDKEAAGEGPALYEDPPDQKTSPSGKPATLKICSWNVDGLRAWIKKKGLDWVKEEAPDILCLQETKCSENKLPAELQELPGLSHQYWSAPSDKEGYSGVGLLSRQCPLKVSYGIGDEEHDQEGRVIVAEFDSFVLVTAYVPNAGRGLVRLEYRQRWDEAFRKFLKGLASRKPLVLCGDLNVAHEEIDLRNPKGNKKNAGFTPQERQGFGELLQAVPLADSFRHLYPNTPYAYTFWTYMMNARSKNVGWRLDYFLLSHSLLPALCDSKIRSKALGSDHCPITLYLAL

As a reminder, the IC50 is the concentration at which inhibition is half-maximal. Regarding `CN(N=O)c1ccc(O)c(O)c1` [methyl 3,4-dephostatin, methyl-3,4-dephostatin], the IC50 is 0.5 µM at APE1 [1] (setting [8]), 14 µM in assay [3], 8.9 µM at E. coli EndoIV (setting [9]) and 0.5 to 2 µM at APE1 [5] (setting [10]). Moreover, the “inhibition of total AP site cleavage activity” value in assay [2] and in assay [4] was “no effect” each time. In addition, on E. coli EndoIV, the “activity against EndoIV compared with APE1 (in words)” value is “completely inactive or weakly active”. The “Gel: inhibition detected or not in radiotracer incision assay” value (“Gel: inhibition detected or not” below) at APE1 [5] is recorded as “Yes”.

Take `CC(=O)[C@]1(O)Cc2c(O)c3c(c(O)c2[C@@H](O[C@H]2C[C@H](N)[C@H](O)[C@H](C)O2)C1)C(=O)c1ccccc1C3=O` [idarubicin]: the “ThO displacement (in words)” value in assay [3] is reported as “strong ThO displacement profiles”.

In the case of `NC(Cc1cc(O)c(O)cc1O)C(=O)O` (racemic) [6-hydroxy-DL DOPA, 6-hydroxy-DL-DOPA], in the assay with HeLa cells [6] (5 µM inhibitor alone, relative to control cells), the “AP site damage, inhibitor alone” value is on record as “increased AP site damage relative to the control cells”. In the assay with HeLa cells [6] (5 µM inhibitor plus MMS), the “AP site damage, inhibitor plus MMS” value is reported as “potentiated the genotoxic potential of MMS”. In addition, in the assay with HeLa cells [7], the “percent cell killing, MMS plus inhibitor relative to alkylator or inhibitor alone” value is “greater than additive increase”. The IC50 was 0.11 µM at APE1 [1], 7.9 µM in assay [3], 10 µM against E. coli EndoIV and below 0.5 µM on APE1 [5]. The “inhibition of total AP site cleavage activity” value in assay [2] and in assay [4] was “complete inhibition” in each case. For the same molecule, the “activity against EndoIV compared with APE1 (in words)” value at E. coli EndoIV is “completely inactive or weakly active”. Also, at APE1 [5], the “Gel: inhibition detected or not” value was “Yes”.

As to `C=C/C(C)=C/[C@@]1(C)SC(=O)C(C)=C1O` [thiolactomycin], the IC50 on APE1 [1] (setting [8]) is 1 µM; in assay [3], above 57 µM; at E. coli EndoIV (setting [9]) it was 20 µM; at APE1 [5] (setting [10]), 0.5 to 2 µM. Further, the “inhibition of total AP site cleavage activity” value in assay [2] and in assay [4] was “no effect” each time. The “ThO displacement (in words)” value in assay [3] is on record as “weak or no displacement activity”; in assay [3] (listed as Thiolactomycin), “does not affect ThO displacement”. Moreover, the “activity against EndoIV compared with APE1 (in words)” value on E. coli EndoIV is “completely inactive or weakly active”. For the same molecule, at APE1 [5], the “Gel: inhibition detected or not” value is recorded as “Yes”.

Consider `O=C(O)C1=CC(=C(c2ccc(O)c(C(=O)O)c2)c2ccc(O)c(C(=O)O)c2)C=CC1=O` [aurintricarboxylic acid], for which, on APE1 [1], the “APE1 inhibition in fluorogenic assay (in words)” value is listed as “low nanomolar range”. The half-inhibitory concentration (IC50) on APE1 [1] (setting [8]) stood at 0.055 µM; in assay [3], 1.3 µM; on E. coli EndoIV (setting [9]), 25 µM. On E. coli EndoIV, the “activity against EndoIV compared with APE1 (in words)” value was “completely inactive or weakly active”. Also, the “Gel: inhibition detected or not” value at APE1 [5] is “Yes”.

Take `O=C1c2c(O)ccc(O)c2C(=O)c2c(NCCNCCO)ccc(NCCNCCO)c21` [mitoxantrone]: the IC50 on APE1 [1] (setting [8]) is 2 µM; in assay [3], 0.35 µM; at E. coli EndoIV (setting [9]), 2 µM; on APE1 [5] (setting [10]), below 0.5 µM. Also, the “ThO displacement (in words)” value in assay [3] is on record as “positive”. Further, at E. coli EndoIV, the “activity against EndoIV compared with APE1 (in words)” value was “similarly potent against each endonuclease”. In addition, the “Gel: inhibition detected or not” value on APE1 [5] was “Yes”.

Take `COc1cccc2c1C(=O)c1c(O)c3c(c(O)c1C2=O)C[C@@](O)(C(=O)CO)C[C@@H]3O[C@H]1C[C@H](N)[C@H](O)[C@H](C)O1` [doxorubicin]: in assay [3], the “ThO displacement (in words)” value is “strong ThO displacement profiles”.

Turning to `Cc1nc(N=Nc2cc(S(=O)(=O)O)c3cc([N+](=O)[O-])cc(S(=O)(=O)O)c3c2)c(COP(=O)(O)O)c(C=O)c1O` [PPNDS tetrasodium], the IC50 is 2.8 µM on APE1 [1] (setting [8]), 10 µM in assay [3], 16 µM on E. coli EndoIV (setting [9]) and above 50 µM at APE1 [5] (setting [10]). Besides, the “Gel: inhibition detected or not” value at APE1 [5] is given as “No”.

Consider `CC(=O)OCC1=C(C(=O)O)N2C(=O)[C@@H](NC(=O)CSc3ccncc3)[C@H]2SC1` [cephapirin sodium], for which the IC50 was 8.9 µM on APE1 [1] (setting [8]), above 57 µM in assay [3], 16 µM at E. coli EndoIV (setting [9]) and above 50 µM at APE1 [5] (setting [10]). Also, the “activity against EndoIV compared with APE1 (in words)” value at E. coli EndoIV was “similarly potent against each endonuclease”. Also, the “Gel: inhibition detected or not” value at APE1 [5] was “No”.

For `Cn1cc(NC(=O)c2cc(NC(=O)c3cc(NC=O)cn3C)cn2C)cc1C(=O)NCCC(=N)N` [distamycin], the “ThO displacement (in words)” value in assay [3] is reported as “strong displacement activity”.

Turning to `CO/N=C(\C(=O)N[C@@H]1C(=O)N2C(C(=O)O)=C(CSc3nc(=O)c(=O)[nH]n3C)CS[C@H]12)c1csc(N)n1` [ceftriaxone sodium], the IC50 was 2.2 µM on APE1 [1] (setting [8]), above 57 µM in assay [3], 11 µM at E. coli EndoIV (setting [9]) and above 50 µM on APE1 [5] (setting [10]). Besides, at APE1 [5], the “Gel: inhibition detected or not” value is on record as “No”.

With `N#C/C(=C\c1ccc(O)c(O)c1)C(=O)c1ccc(O)c(O)c1` [Tyrphostin AG 538], the IC50 on APE1 [1] (setting [8]) was 0.28 µM; in assay [3], 20 µM; on E. coli EndoIV (setting [9]) it was 0.28 µM; at APE1 [5] (setting [10]), 0.5 to 2 µM. In addition, the “inhibition of total AP site cleavage activity” value in assay [2] and in assay [4] was “mild inhibition” each time. Besides, the “ThO displacement (in words)” value in assay [3] is on record as “weak or no displacement activity”. Further, on E. coli EndoIV, the “activity against EndoIV compared with APE1 (in words)” value was “similarly potent against each endonuclease”. Also, the “Gel: inhibition detected or not” value on APE1 [5] is “Yes”.
